In patent US11555821B2, “CA IX-NIR dyes and their uses” (On Target Laboratories, Inc., priority 2016, dated 2023):

Tests used:
[1] = test system: SKRC52 human renal tumor xenograft; test: Whole body fluorescence imaging of SKRC52 human renal tumor xenograft bearing mouse (IVIS imager); assay type: in vivo; details: 10 nmol
Method: SKRC52 human renal tumor xenograft bearing mouse was injected with 10 nmol of 54 and imaged with IVIS imager (ex=745 nm, em=ICG, exposure time=1 s) at different time intervals.
SKRC52 human renal tumor xenograft bearing mouse was injected with 10 nmol of 55 and imaged with IVIS imager (ex=745 nm, em=ICG, exposure time=1 s) at different time intervals.
SKRC52 human renal tumor xenograft bearing mouse was injected with 10 nmol of 60 and imaged with IVIS imager (ex=745 nm, em=ICG, exposure time=[…]) at different time intervals.
SKRC52 human renal tumor xenograft bearing mouse was injected with 10 nmol of 61 and imaged with IVIS imager (ex=745 nm, em=ICG, exposure time=[…]) at different time intervals.
SKRC52 human renal tumor xenograft bearing mouse was injected with 10 nmol of 62 and imaged with IVIS imager (ex=745 nm, em=ICG, exposure time=1 s) at different time intervals.
SKRC52 human renal tumor xenograft bearing mouse was injected with 10 nmol of 65 and imaged with IVIS imager (ex=745 nm, em=ICG, exposure time=1 s) at different time intervals.
SKRC52 human renal tumor xenograft bearing mouse was injected with 10 nmol of 69 and imaged with IVIS imager (ex=745 nm, em=ICG, exposure time=1 s) at different time intervals.
SKRC52 human renal tumor xenograft bearing mouse was injected with 10 nmol of 70 and imaged with IVIS imager (ex=745 nm, em=ICG, exposure time=1 s) at different time intervals.
SKRC52 human renal tumor xenograft bearing mouse was injected with 10 nmol 72 and imaged with IVIS imager (ex=745 nm, em=ICG, exposure time=1 s) at different time intervals
SKRC52 human renal tumor xenograft bearing mouse was injected with 10 nmol of 76 and imaged with IVIS imager (ex=745 nm, em=ICG, exposure time=1 s) at different time intervals
SKRC52 human renal tumor xenograft bearing mouse was injected with 10 nmol of 77 and imaged with IVIS imager (ex=745 nm, em=ICG, exposure time=1 s) at different time intervals
SKRC52 human renal tumor xenograft bearing mouse was injected with 10 nmol of 80 and imaged with IVIS imager (ex=745 nm, em=ICG, exposure time=1 s) at different time intervals
SKRC52 human renal tumor xenograft bearing mouse was injected with 10 nmol of 81 and imaged with IVIS imager (ex=745 nm, em=ICG, exposure time=1 s) at different time intervals
SKRC52 human renal tumor xenograft bearing mouse was injected with 10 nmol of 85 and imaged with IVIS imager (ex=745 nm, em=ICG, exposure time=1 s) at different time intervals
SKRC52 human renal tumor xenograft bearing mouse was injected with 10 nmol of 86 and imaged with IVIS imager (ex=745 nm, em=ICG, exposure time=1 s) at different time intervals
SKRC52 human renal tumor xenograft bearing mouse was injected with 10 nmol of 87 and imaged with IVIS imager (ex=745 nm, em=ICG, exposure time=1 s) at different time intervals
SKRC52 human renal tumor xenograft bearing mouse was injected with 10 nmol of 88 and imaged with IVIS imager (ex=745 nm, em=ICG, exposure time=1 s) at different time intervals
SKRC52 human renal tumor xenograft bearing mouse was injected with 10 nmol of 89 and imaged with IVIS imager (ex=745 nm, em=ICG, exposure time=1 s) at different time intervals
SKRC52 human renal tumor xenograft bearing mouse was injected with 10 nmol of 90 and imaged with IVIS imager (ex=745 nm, em=ICG, exposure time=1 s) at different time intervals
SKRC52 human renal tumor xenograft bearing mouse was injected with 10 nmol of 93 and imaged with IVIS imager (ex=745 nm, em=ICG, exposure time=1 s) at different time intervals
SKRC52 human renal tumor xenograft bearing mouse was injected with 10 nmol of 95 and imaged with IVIS imager (ex=745 nm, em=ICG, exposure time=1 s) at different time intervals
SKRC52 human renal tumor xenograft bearing mouse was injected with 10 nmol of 99 and imaged with IVIS imager (ex=745 nm, em=ICG, exposure time=1 s) at different time intervals […]

[2] = in the presence and absence of light; cited from earlier work
[3] = imaged at different time intervals
[4] = within 2-24 hours after administering to the animal

Compound: CC1(C)C(/C=C/C2=C(Oc3ccc(C[C@H](NC(=O)CCS(=O)(=O)c4c(F)c(F)c(S(N)(=O)=O)c(F)c4NC4CCCCCCC4)C(=O)O)cc3)C(=C/C=C3/N(CCCCS(=O)(=O)O)c4ccc(S(=O)(=O)O)cc4C3(C)C)/CCC2)=[N+](CCCCS(=O)(=O)[O-])c2ccc(S(=O)(=O)O)cc21 [Compound 62]
- tumor-to-background ratio (TBR) [1, 3]: excellent
- tumor-to-skin ratio [1, 3]: excellent
- accumulation retained in the tumor (fluorescence over 24 hours) [1]: very high accumulation
- whole-body imaging data [1, 4]: very good

Compound: CC(C)C[C@H](Nc1c(F)c(S(N)(=O)=O)c(F)c(F)c1S(=O)(=O)CCC(=O)NCCOCCOCCC(=O)N[C@@H](Cc1ccc(OC2=C(/C=C/C3=[N+](CCCCS(=O)(=O)[O-])c4ccc(S(=O)(=O)O)cc4C3(C)C)CCC/C2=C\C=C2\N(CCCCS(=O)(=O)O)c3ccc(S(=O)(=O)O)cc3C2(C)C)cc1)C(=O)O)C(=O)OCc1ccccc1 [Compound 76]
- tumor-to-background ratio (TBR) [1, 3]: excellent
- tumor-to-skin ratio [1, 3]: excellent
- accumulation retained in the tumor (fluorescence over 24 hours) [1]: very high accumulation
- whole-body imaging data [1, 4]: very good

Compound: CC1(C)C(/C=C/C2=C(Oc3ccc(C[C@H](NC(=O)CCOCCOCCNC(=O)CCS(=O)(=O)c4c(F)c(F)c(S(N)(=O)=O)c(F)c4NC4CCCCC4)C(=O)O)cc3)C(=C/C=C3/N(CCCCS(=O)(=O)O)c4ccc(S(=O)(=O)O)cc4C3(C)C)/CCC2)=[N+](CCCCS(=O)(=O)[O-])c2ccc(S(=O)(=O)O)cc21 [Compound 60]
- tumor-to-background ratio (TBR) [1, 3]: excellent
- tumor-to-skin ratio [1, 3]: excellent
- accumulation retained in the tumor (fluorescence over 24 hours) [1]: very high accumulation
- whole-body imaging data [1, 4]: very good

Compound: CC1(C)C(/C=C/C2=C(Oc3ccc(C[C@H](NC(=O)CCOCCOCCNc4c(F)c(S(N)(=O)=O)c(F)c(F)c4S(=O)(=O)CCO)C(=O)O)cc3)C(=C/C=C3/N(CCCCS(=O)(=O)O)c4ccc(S(=O)(=O)O)cc4C3(C)C)/CCC2)=[N+](CCCCS(=O)(=O)[O-])c2ccc(S(=O)(=O)O)cc21 [Compound 86]
- brightness compared to 60 and 61 [1]: less brighter
- whole-body imaging data [1, 4]: very good

Compound: CC1(C)C(=CC=C2CCCC(C=CC3=[N+](CCCCS(=O)(=O)[O-])c4ccc(S(=O)(=O)O)cc4C3(C)C)=C2Oc2ccc(CC(NC(=O)CCOCCOCCNC(=O)CCS(=O)(=O)c3c(F)c(F)c(S(N)(=O)=O)c(F)c3NC(c3ccccc3)c3ccccc3)C(=O)O)cc2)N(CCCCS(=O)(=O)O)c2ccc(S(=O)(=O)O)cc21 (stereo not shown) [Compound 88]
- whole-body imaging data ([1]; after 8 hours of administering): good
- tumor-to-background ratio (TBR) ([1]; at 24 hour time point): excellent
- tumor-to-skin ratio ([1]; at 24 hour time point): excellent

Compound: CC1(C)C(/C=C/C=C/C=C/C=C2\N(CCCCS(=O)(=O)[O-])c3ccc4ccccc4c3C2(C)C)=[N+](CCCCS(=O)(=O)[O-])c2ccc3ccccc3c21.[Na+] [IR125]
- in vitro cytotoxicity [2]: significant values of cytotoxicity

Compound: CC(C)C[C@H](Nc1c(F)c(S(N)(=O)=O)c(F)c(F)c1S(=O)(=O)CCC(=O)NCCOCCOCCC(=O)N[C@@H](Cc1ccc(OC2=C(/C=C/C3=[N+](CCCCS(=O)(=O)[O-])c4ccc(S(=O)(=O)O)cc4C3(C)C)CCC/C2=C\C=C2\N(CCCCS(=O)(=O)O)c3ccc(S(=O)(=O)O)cc3C2(C)C)cc1)C(=O)O)C(=O)O [Compound 77]
- tumor-to-background ratio (TBR) [1, 3]: excellent
- tumor-to-skin ratio [1, 3]: excellent
- accumulation retained in the tumor (fluorescence over 24 hours) [1]: very high accumulation
- whole-body imaging data [1, 4]: very good

Compound: CN(C)C(N(c1c(F)c(S(N)(=O)=O)c(F)c(F)c1S(=O)(=O)CCC(=O)NCCOCCOCCC(=O)N[C@@H](Cc1ccc(OC2=C(/C=C/C3=[N+](CCCCS(=O)(=O)O)c4ccc(S(=O)(=O)O)cc4C3(C)C)CCC/C2=C\C=C2\N(CCCCS(=O)(=O)O)c3ccc(S(=O)(=O)O)cc3C2(C)C)cc1)C(=O)O)C1CCCCCCC1)=[N+](C)C [Compound 104]
- tumor-to-background ratio (TBR) [1, 3]: excellent
- tumor-to-skin ratio [1, 3]: excellent
- accumulation retained in the tumor (fluorescence over 24 hours) [1]: very high accumulation
- whole-body imaging data [1, 4]: good

Compound: CC1(C)C(/C=C/C2=C(Oc3ccc(C[C@H](NC(=O)CCOCCOCCNC(=O)CCS(=O)(=O)c4ccc(S(N)(=O)=O)cc4NC4CCCCCCC4)C(=O)O)cc3)C(=C/C=C3/N(CCCCS(=O)(=O)O)c4ccc(S(=O)(=O)O)cc4C3(C)C)/CCC2)=[N+](CCCCS(=O)(=O)[O-])c2ccc(S(=O)(=O)O)cc21 [Compound 85]
- tumor fluorescence intensity and tumor-to-background ratio compared to the compound 61 [1]: less
- tumor-to-background ratio (TBR) [1, 3]: excellent
- tumor-to-skin ratio [1, 3]: excellent
- accumulation retained in the tumor (fluorescence over 24 hours) [1]: very high accumulation
- whole-body imaging data [1, 4]: very good

Compound: CN1/C(=C/C=C2\CCCC(/C=C/C3=[N+](C)c4ccc5ccccc5c4C3(C)C)=C2Cl)C(C)(C)c2c1ccc1ccccc21.Cc1ccc(S(=O)(=O)[O-])cc1 [IR813]
- in vitro cytotoxicity [2]: significant values of cytotoxicity

Compound: CC1(C)C(=CC=C2CCCC(C=CC3=[N+](CCCCS(=O)(=O)[O-])c4ccc5ccccc5c4C3(C)C)=C2Cl)N(CCCCS(=O)(=O)[O-])c2ccc3ccccc3c21.[Na+] [IR820]
- in vitro cytotoxicity [2]: no major cytotoxic effects

Compound: CC1(C)C(/C=C/C2=C(Oc3ccc(C[C@H](NC(=O)CCOCCOCCNC(=O)CCS(=O)(=O)c4c(F)c(F)c(S(N)(=O)=O)c(F)c4NC4CCC(F)(F)CC4)C(=O)O)cc3)C(=C/C=C3/N(CCCCS(=O)(=O)O)c4ccc(S(=O)(=O)O)cc4C3(C)C)/CCC2)=[N+](CCCCS(=O)(=O)[O-])c2ccc(S(=O)(=O)O)cc21 [Compound 72]
- tumor-to-background ratio (TBR) [1, 3]: excellent
- tumor-to-skin ratio [1, 3]: excellent
- accumulation retained in the tumor (fluorescence over 24 hours) [1]: very high accumulation
- whole-body imaging data [1, 4]: very good
